Measurements from ChEMBL document CHEMBL4043274, “4-Hydroxy-2-pyridones: Discovery and evaluation of a novel class of antibacterial agents targeting DNA synthesis” (Bioorg Med Chem Lett, 2017).
Values after ≈ are worked out from the molar mass of the structure shown.

What was measured:
[1] = system: Escherichia coli; assay: Antibacterial activity against wild-type Escherichia coli ATCC 25922 by CLSI M100-S17 protocol based method; format: functional
[2] = system: Acinetobacter baumannii; assay: Antibacterial activity against Acinetobacter baumannii ATCC BAA-747 by CLSI M100-S17 protocol based method; format: functional
[3] = system: Klebsiella pneumoniae; assay: Antibacterial activity against Klebsiella pneumoniae ATCC 35657 by CLSI M100-S17 protocol based method; format: functional
[4] = system: Escherichia coli; assay: Ratio of MIC in presence to absence of HSA for wild-type Escherichia coli ATCC 25922; format: functional
[5] = system: Escherichia coli; assay: Antibacterial activity against Escherichia coli BAS849 by CLSI M100-S17 protocol based method; format: functional
[6] = system: Escherichia coli; assay: Antibacterial activity against wild-type Escherichia coli ATCC 25922 in presence of human serum albumin by CLSI M100-S17 protocol based method; format: functional
[7] = system: Escherichia coli; assay: Antibacterial activity against quinolone resistant Escherichia coli SKM18 by CLSI M100-S17 protocol based method; format: functional
[8] = Selectivity ratio of MIC for wild-type Escherichia coli ATCC 25922 to MIC for Escherichia coli BAS849; format: functional
[9] = Terminal half life in Sprague-Dawley rat at 5 mg/kg, iv administered as single dose; format: ADME, organism-based; conditions: in vivo, read-out: beta t1/2 (converted)
[10] = system: Escherichia coli; assay: Antibacterial activity against wild-type Escherichia coli ATCC 25922 infected in iv dosed CD-1 mouse assessed as mouse survival treated for 1 hr followed by reinfection with bacteria measured at 96 hrs post infection; format: functional; conditions: ATCC 25922, iv, read-out: PD50
[11] = Protein binding in mouse plasma; format: ADME, cell-free; conditions: read-out: PPB (converted)
[12] = Inhibition of DNA gyrase-A in Escherichia coli ATCC 25922 using relaxed pBR322 DNA as substrate after 30 mins by ethidium bromide staining based agarose gel electrophoresis method
[13] = system: Escherichia coli; assay: Antibacterial activity against clinical isolates of Escherichia coli by broth microdilution assay; format: functional
[14] = Oral bioavailability in Sprague-Dawley rat; format: ADME, organism-based; conditions: in vivo
[15] = Volume of distribution at steady state in Sprague-Dawley rat at 5 mg/kg, iv administered as single dose; format: ADME, organism-based; conditions: in vivo, read-out: Vdss
[16] = system: Staphylococcus aureus; assay: Antibacterial activity against multidrug resistant Staphylococcus aureus by broth microdilution assay; format: functional
[17] = Inhibition of Escherichia coli ATCC 25922 topoisomerase-4 ParC at 100 uM using kinetoplast DNA as substrate after 60 mins relative to control
[18] = system: Rattus norvegicus; assay: Dose normalized AUC (0 to 24 hrs) in Sprague-Dawley rat at 5 mg/kg, iv administered as single dose; format: ADME, organism-based; conditions: in vivo
[19] = system: Staphylococcus aureus; assay: Antibacterial activity against wild-type Staphylococcus aureus ATCC 29213 by CLSI M100-S17 protocol based method; format: functional

| SMILES | MIC [1] [mg/L] | MIC [5] [mg/L] | MIC [2] [mg/L] | Ratio [4] | MIC [6] [mg/L] | MIC [7] [mg/L] | further results |
| --- | --- | --- | --- | --- | --- | --- | --- |
| CCc1c(-c2ccc(N3CCC(C(C)(C)N)C3)cc2)[nH]c(=O)c(C(=O)O)c1O (stereo not given) | 3.1 (≈ 8.04 µM) | 0.78 (≈ 2.02 µM) | > 12.5 | 4 - 8 | 12.5 | 0.78 (≈ 2.02 µM) | MIC [3]: 6.3 mg/L (≈ 16.3 µM) |
| CCc1c(-c2ccc(N3CCNCC3)cc2)[nH]c(=O)c(C(=O)O)c1O | 6.3 (≈ 18.3 µM) | 3.1 (≈ 9.03 µM) |  | <3 | 15.6 | 62.5 (≈ 182 µM) |  |
| Cc1c(-c2ccc(N(C)C)cc2)[nH]c(=O)c(C(=O)O)c1O | 31.3 (≈ 109 µM) | 0.39 (≈ 1.35 µM) |  |  |  | 3.1 (≈ 10.8 µM) |  |
| CN(C)c1ccc(-c2[nH]c(=O)c(C(=O)O)c(O)c2Cc2ccccc2)cc1 | > 12.5 | > 12.5 |  |  |  |  |  |
| CCc1c(-c2ccc(N3CCC(CNC)C3)cc2)[nH]c(=O)c(C(=O)O)c1O (stereo not given) | 1.6 (≈ 4.31 µM) | 0.39 (≈ 1.05 µM) | 12.5 (≈ 33.7 µM) | 4 - 8 | 6.3 | 7.8 (≈ 21 µM) | MIC [3]: 6.3 mg/L (≈ 17 µM) |
| CCc1c(-c2ccc(N3CC(N)C4(CC4)C3)cc2)[nH]c(=O)c(C(=O)O)c1O (stereo not given) | 3.1 (≈ 8.39 µM) | 0.78 (≈ 2.11 µM) |  |  |  | 6.3 (≈ 17.1 µM) |  |
| CCc1c(-c2ccc(N3C[C@@H]4[C@H](C3)[C@H]4N(C)C)cc2)[nH]c(=O)c(C(=O)O)c1O | 6.3 (≈ 16.4 µM) | 0.25 (≈ 0.652 µM) | > 12.5 | 4 - 8 | > 12.5 | 12.5 (≈ 32.6 µM) |  |
| CCc1c(-c2ccc(N3C[C@@H]4[C@H](C3)[C@H]4NC)cc2)[nH]c(=O)c(C(=O)O)c1O | 0.39 (≈ 1.06 µM) | 0.049 (≈ 0.133 µM) | 1.6 (≈ 4.33 µM) | 4 - 8 | 3.1 | 3.1 (≈ 8.39 µM) | MIC [3]: 0.39 mg/L (≈ 1.06 µM) |
| CCc1c(-c2ccc(N3CC4CC4(N)C3)cc2)[nH]c(=O)c(C(=O)O)c1O (stereo not given) | 1.6 (≈ 4.5 µM) | 0.04 (≈ 0.113 µM) | 6.3 (≈ 17.7 µM) |  | > 12.5 | 6.3 (≈ 17.7 µM) | MIC [3]: 3.1 mg/L (≈ 8.72 µM) |
| CCc1c(-c2ccc(N3C[C@@H]4[C@@H](N)[C@@H]4C3)cc2)[nH]c(=O)c(C(=O)O)c1O | 0.19 (≈ 0.535 µM) | 0.049 (≈ 0.138 µM) | 0.78 (≈ 2.19 µM) |  | 0.78 | 12.5 (≈ 35.2 µM) | half-life [9]: 2.9 h; ED50 [10]: 8 mg/kg; fraction unbound [11]: 0.12; IC50 [12]: 0.77 µM; MIC [3]: 0.39 mg/L (≈ 1.1 µM); MIC50 [13]: 0.25 mg/L (≈ 0.703 µM); MIC90 [13]: 8 mg/L (≈ 22.5 µM); bioavailability [14]: 17%; Vd [15]: 0.54 L/kg; MIC [16]: 0.5 to 8 mg/L (≈ 1.41 to 22.5 µM); MIC50 [16]: 1 mg/L (≈ 2.81 µM); MIC90 [16]: 8 mg/L (≈ 22.5 µM); IC50 [17]: 2.4 µM; AUC/dose [18]: 30.7 µg·h/mL |
| COc1c(N2C[C@@H]3CCCN[C@@H]3C2)c(F)cc2c(=O)c(C(=O)O)cn(C3CC3)c12 [MOXIFLOXACIN] |  |  |  |  |  |  | ED50 [10]: < 3 mg/kg; MIC50 [16]: 4 mg/L (≈ 9.96 µM); MIC90 [16]: 32 mg/L (≈ 79.7 µM) |
| CCc1c(-c2ccc(N(C)C)cc2)n(Cc2ccccc2)c(=O)c2c(O)cc(=O)oc12 | > 12.5 |  |  |  |  |  | MIC [19]: 3.1 mg/L (≈ 7.44 µM) |
| CCc1c(-c2ccc(N3CCCCC3)cc2)[nH]c(=O)c(C(=O)O)c1O | > 62.5 | 0.39 (≈ 1.14 µM) |  | >30 |  |  | Selectivity ratio [8]: > 50 |
| CCc1c(-c2ccc(N3CCC(C4(N)CC4)C3)cc2)[nH]c(=O)c(C(=O)O)c1O (stereo not given) | 1.6 (≈ 4.17 µM) | 0.39 (≈ 1.02 µM) | 3.1 (≈ 8.08 µM) | 4 - 8 | 12.5 |  | MIC [3]: 3.1 mg/L (≈ 8.08 µM) |

Second part, led by results:

| MIC [1] [mg/L] | MIC [5] [mg/L] | SMILES | MIC [2] [mg/L] | Ratio [4] | MIC [6] [mg/L] | MIC [7] [mg/L] | further results |
| --- | --- | --- | --- | --- | --- | --- | --- |
| > 12.5 | 1.6 (≈ 5.06 µM) | CCc1c(-c2ccc(N(C)C)c(C)c2)[nH]c(=O)c(C(=O)O)c1O |  |  |  |  |  |
| > 12.5 | 12.5 (≈ 39.5 µM) | CCc1c(-c2ccc(N(C)C)cc2)[nH]c(=O)c(C(=O)O)c1OC |  |  |  |  |  |
| > 62.5 | 0.24 (≈ 0.726 µM) | CCc1c(-c2ccc(N(CC)CC)cc2)[nH]c(=O)c(C(=O)O)c1O |  |  |  |  | Selectivity ratio [8]: > 50 |
| > 12.5 | 0.78 (≈ 2.85 µM) | CCc1c(-c2ccc(C)cc2)[nH]c(=O)c(C(=O)O)c1O |  |  |  |  |  |
| > 12.5 | 1.6 (≈ 5.45 µM) | CCc1c(-c2ccc(Cl)cc2)[nH]c(=O)c(C(=O)O)c1O |  |  |  |  |  |
| > 12.5 | ≤ 0.2 | CCc1c(-c2ccc(N(C)C)cc2F)[nH]c(=O)c(C(=O)O)c1O |  |  |  |  |  |
| > 62.5 | 1.56 (≈ 4.96 µM) | CN(C)c1ccc(-c2[nH]c(=O)c(C(=O)O)c(O)c2C2CC2)cc1 |  |  |  |  |  |
